# Test results taken from patent publication US10654814B2, “Bicyclic hydroxamic acids useful as inhibitors of mammalian histone deacetylase activity” (KANCERA AB, priority 2015, dated 2020).
# Where a name gives a salt, the structure may show the parent alone.
# Biological target: HDAC6 (Homo sapiens (Human), UniProt Q9UBN7)
# Assay: HDAC6 in vitro enzymatic assay (fluorescence)
# Type: biochemical
# Settings: Table 3; read-out: IC50 (nM) for inhibition of HDAC6
# Method: Biological Tests Method for Measurement of Enzymatic Activity of HDACs Materials & Methods
# All Examples were tested in HDAC1,2,3,6 and 8 in vitro enzymatic assays. The assay principle is well known (Hauser et al. 2009, Bradner et al. 2010) and all necessary reagents like enzymes, substrates, developer and reference compounds are commercially available (see e.g. BPS Biosciences http://www.bpsbioscience.com/). Stock solutions (10 mM in DMSO) of compounds were serially diluted 1:3 in 11 concentrations with a top concentration of 200 μM for HDAC1,2,3 and 2 μM for HDAC6 and HDAC8. The enzymatic reactions were conducted in a mixture containing assay buffer, bovine serum albumin, HDAC substrate, and a test compound. After enzymatic reaction, developer was added and after an additional incubation time, fluorescence intensity was measured at an excitation wavelength of 360 nm and an emission wavelength of 460 nm. All experiments were performed in duplicate.
# HDAC6, sequence (Q9UBN7 whole entry): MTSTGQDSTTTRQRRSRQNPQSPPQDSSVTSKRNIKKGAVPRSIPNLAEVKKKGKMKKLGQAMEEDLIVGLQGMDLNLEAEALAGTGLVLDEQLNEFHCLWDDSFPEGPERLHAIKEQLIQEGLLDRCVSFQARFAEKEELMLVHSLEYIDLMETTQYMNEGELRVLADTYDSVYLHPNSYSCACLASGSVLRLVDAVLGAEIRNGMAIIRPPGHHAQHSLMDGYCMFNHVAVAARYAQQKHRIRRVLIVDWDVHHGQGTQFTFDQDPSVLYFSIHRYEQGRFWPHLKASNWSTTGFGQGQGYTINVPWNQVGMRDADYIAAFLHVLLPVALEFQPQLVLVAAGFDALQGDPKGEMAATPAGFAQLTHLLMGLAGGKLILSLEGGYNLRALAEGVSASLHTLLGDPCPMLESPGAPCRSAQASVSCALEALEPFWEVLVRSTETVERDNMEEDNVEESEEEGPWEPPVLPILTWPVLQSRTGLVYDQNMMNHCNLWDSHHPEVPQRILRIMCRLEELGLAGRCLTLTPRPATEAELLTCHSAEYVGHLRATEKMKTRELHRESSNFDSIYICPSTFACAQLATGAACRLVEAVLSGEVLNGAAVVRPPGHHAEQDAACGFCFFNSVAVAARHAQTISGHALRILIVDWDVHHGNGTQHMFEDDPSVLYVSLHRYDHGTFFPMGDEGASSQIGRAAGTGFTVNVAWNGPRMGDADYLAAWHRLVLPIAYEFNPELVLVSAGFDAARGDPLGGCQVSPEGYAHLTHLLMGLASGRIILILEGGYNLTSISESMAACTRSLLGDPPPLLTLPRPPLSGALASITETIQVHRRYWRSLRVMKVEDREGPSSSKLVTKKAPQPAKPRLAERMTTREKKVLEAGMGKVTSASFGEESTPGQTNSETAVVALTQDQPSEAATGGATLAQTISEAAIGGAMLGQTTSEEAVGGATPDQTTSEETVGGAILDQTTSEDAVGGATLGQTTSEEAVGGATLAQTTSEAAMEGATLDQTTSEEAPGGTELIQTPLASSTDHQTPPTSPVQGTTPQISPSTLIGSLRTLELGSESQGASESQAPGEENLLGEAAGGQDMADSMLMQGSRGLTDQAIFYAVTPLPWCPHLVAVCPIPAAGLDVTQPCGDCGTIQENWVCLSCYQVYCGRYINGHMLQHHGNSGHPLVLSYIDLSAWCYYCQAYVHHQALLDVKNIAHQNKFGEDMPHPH
row,Structure (SMILES),IC50
1,"O=C(NO)c1ccc2oc(Nc3cccc(-c4ccccc4)c3)nc2c1 [Example 230, 2-(biphenyl-3-ylamino)-N-hydroxy-1,3-benzoxazole-5-carboxamide]",7 nM
2,"O=C(NO)c1ccc2oc(-c3ccc(N4CCOCC4)nc3)nc2c1 [Example 15, N-hydroxy-2-(6-morpholin-4-ylpyridin-3-yl)-1,3-benzoxazole-5-carboxamide]",28 nM
3,"CC(C)CN(Cc1nc2cc(C(=O)NO)ccc2s1)CC(C)C [Example 274, 2-{[Bis(2-methylpropyl)amino]methyl}-N-hydroxy-1,3-benzothiazole-5-carboxamide trifluoroacetate]",16 nM
4,"COc1ccc(-c2cc3cc(C(=O)NO)ccc3s2)cc1 [Example 93, N-hydroxy-2-(4-methoxyphenyl)-1-benzothiophene-5-carboxamide]",9 nM
5,"O=C(NO)c1ccc2oc(-c3ccc(CN4CCN(c5ccncc5)CC4)cc3)nc2c1 [Example 209, N-hydroxy-2-{4-[(4-pyridin-4-ylpiperazin-1-yl)methyl]phenyl}-1,3-benzoxazole-5-carboxamide trifluoroacetate]",35 nM
6,"O=C(NO)c1ccc2oc(-c3ccc(N4CCCC4)nc3)nc2c1 [Example 41, N-Hydroxy-2-(6-pyrrolidin-1-ylpyridin-3-yl)-1,3-benzoxazole-5-carboxamide trifluoroacetate]",22 nM
7,"Cn1cc(-c2cc3cc(C(=O)NO)ccc3s2)cn1 [Example 99, N-hydroxy-2-(1-methyl-1H-pyrazol-4-yl)-1-benzothiophene-5-carboxamide]",16 nM
8,"COc1ccc(-c2nc3cc(C(=O)NO)ccc3s2)cc1 [Example 78, N-hydroxy-2-(4-methoxyphenyl)-1,3-benzothiazole-5-carboxamide]",12 nM
9,"O=C(NO)c1ccc2nc(-c3ccc(-c4cccnc4)nc3)oc2c1 [Example 55, 2-(2,3′-Bipyridin-5-yl)-N-hydroxy-1,3-benzoxazole-6-carboxamide trifluoroacetate]",81 nM
10,"Cc1ccc(Nc2nc3cc(C(=O)NO)ccc3o2)cc1 [Example 263, N-hydroxy-2-[(4-methylphenyl)amino]-1,3-benzoxazole-5-carboxamide]",9 nM
11,"O=C(NO)c1ccc2sc(COCc3ccccc3)nc2c1 [Example 270, 2-[(Benzyloxy)methyl]-N-hydroxy-1,3-benzothiazole-5-carboxamide]",4 nM
12,"O=C(NO)c1ccc2oc(NCc3ccc(-c4ccccc4)cc3)nc2c1 [Example 234, 2-[(biphenyl-4-ylmethyl)amino]-N-hydroxy-1,3-benzoxazole-5-carboxamide]",4 nM
13,"CS(=O)(=O)c1ccc(-c2ccc(-c3nc4cc(C(=O)NO)ccc4o3)cc2)cc1 [Example 180, N-hydroxy-2-[4′-(methylsulfonyl)biphenyl-4-yl]-1,3-benzoxazole-5-carboxamide]",8 nM
14,"O=C(NO)c1ccc2oc(-c3ccc(-c4ccccc4)nc3)nc2c1 [Example 161, N-Hydroxy-2-(6-phenylpyridin-3-yl)-1,3-benzoxazole-5-carboxamide trifluoroacetate]",22 nM
15,"N#Cc1ccc(-c2nc3cc(C(=O)NO)ccc3o2)cc1 [Example 36, 2-(4-Cyanophenyl)-N-hydroxy-1,3-benzoxazole-5-carboxamide]",56 nM
16,"O=C(NO)c1ccc2oc(N3CCC(Cc4ccccc4)CC3)nc2c1 [Example 48, 2-(4-benzylpiperidin-1-yl)-N-hydroxy-1,3-benzoxazole-5-carboxamide]",73 nM
17,"O=C(NO)c1ccc2oc(-c3ccc4[nH]nnc4c3)nc2c1 [Example 39, 2-(1H-Benzotriazol-5-yl)-N-hydroxy-1,3-benzoxazole-5-carboxamide]",26 nM
18,"CC(C)c1ccc(Nc2nc3cc(C(=O)NO)ccc3n2C)cc1 [Example 138, N-hydroxy-2-((4-isopropylphenyl)amino)-1-methyl-1H-benzo[d]imidazole-5-carboxamide]",22 nM
19,"COc1ccc(-c2nc3ccc(C(=O)NO)cc3o2)cc1 [Example 52, N-hydroxy-2-(4-methoxyphenyl)-1,3-benzoxazole-6-carboxamide]",17 nM
20,"COc1cc(-c2cc3ccc(C(=O)NO)cc3s2)ccc1O [Example 150, N-hydroxy-2-(4-hydroxy-3-methoxyphenyl)-1-benzothiophene-6-carboxamide]",53 nM
21,"COc1ncccc1-c1cc2cc(C(=O)NO)ccc2s1 [Example 97, N-hydroxy-2-(2-methoxypyridin-3-yl)-1-benzothiophene-5-carboxamide]",47 nM
22,"CC(C)c1ccc(-c2cc3cc(C(=O)NO)cnc3s2)cc1 [Example 87, N-Hydroxy-2-[4-(1-methylethyl)phenyl]thieno[2,3-b]pyridine-5-carboxamide]",42 nM
23,"C[C@@H]1CN(Cc2ccc(-c3nc4cc(C(=O)NO)ccc4o3)cc2)C[C@H](C)O1 [Example 207, 2-(4-{[(cis)-2,6-dimethylmorpholin-4-yl]methyl}phenyl)-N-hydroxy-1,3-benzoxazole-5-carboxamide trifluoroacetate]",73 nM
24,"COc1ccc(-c2nc3cc(C(=O)NO)ccc3o2)cc1 [Example 11, N-hydroxy-2-(4-methoxyphenyl)-1,3-benzoxazole-5-carboxamide]",8 nM
25,"Cc1ncccc1-c1nc2cc(C(=O)NO)ccc2o1 [Example 40, N-Hydroxy-2-(2-methylpyridin-3-yl)-1,3-benzoxazole-5-carboxamide trifluoroacetate]",54 nM
26,"CC(C)c1ccc(-c2cc3cc(C(=O)NO)ccc3[nH]2)cc1 [Example 60, N-Hydroxy-2-[4-(1-methylethyl)phenyl]-1H-indole-5-carboxamide]",62 nM
27,"O=C(NO)c1ccc2oc(NCCc3ccccc3)nc2c1 [Example 45, N-hydroxy-2-[(2-phenylethyl)amino]-1,3-benzoxazole-5-carboxamide]",21 nM
28,"O=C(NO)c1ccc2oc(-c3ccc(-c4ccncc4)cc3)nc2c1 [Example 22, N-hydroxy-2-(4-pyridin-4-ylphenyl)-1,3-benzoxazole-5-carboxamide]",13 nM
29,"Cn1c(Nc2cccc(OCc3ccccc3)c2)nc2cc(C(=O)NO)ccc21 [Example 142, 2-((3-(benzyloxy)phenyl)amino)-N-hydroxy-1-methyl-1H-benzo[d]imidazole-5-carboxamide]",1 nM

# Continued by falling IC50, values first:
row,IC50,Structure (SMILES)
1,85 nM,"O=C(NO)c1ccc2nc(N3CCN(c4ccc(F)cc4)CC3)[nH]c2c1 [Example 126, 2-(4-(4-fluorophenyl)piperazin-1-yl)-N-hydroxy-1H-benzo[d]imidazole-6-carboxamide]"
2,60 nM,"O=C(NO)c1ccc2nc(NCc3ccccc3)[nH]c2c1 [Example 127, 2-(benzylamino)-N-hydroxy-1H-benzo[d]imidazole-6-carboxamide]"
3,39 nM,"Cn1c(Nc2ccccc2)nc2cc(C(=O)NO)ccc21 [Example 137, N-Hydroxy-1-methyl-2-(phenylamino)-1H-benzimidazole-5-carboxamide]"
4,37 nM,"O=C(NO)c1ccc2sc(-c3cc(F)ccc3O)cc2c1 [Example 105, 2-(5-fluoro-2-hydroxyphenyl)-N-hydroxy-1-benzothiophene-5-carboxamide]"
5,35 nM,"CN(C)C(=O)c1ccc(-c2cc3cc(C(=O)NO)ccc3s2)cc1 [Example 108, 2-[4-(dimethylcarbamoyl)phenyl]-N-hydroxy-1-benzothiophene-5-carboxamide]"
6,34 nM,"O=C(NO)c1ccc2oc(-c3ccc(-c4cccnc4)cc3F)nc2c1 [Example 175, 2-(2-fluoro-4-pyridin-3-ylphenyl)-N-hydroxy-1,3-benzoxazole-5-carboxamide]"
7,30 nM,"CN(Cc1ccccc1)c1nc2cc(C(=O)NO)ccc2n1C [Example 139, 2-(benzyl(methyl)amino)-N-hydroxy-1-methyl-1H-benzo[d]imidazole-5-carboxamide]"
8,27 nM,"O=C(NO)c1ccc2oc(N(Cc3ccccc3)c3ccccc3)nc2c1 [Example 241, 2-[benzyl(phenyl)amino]-N-hydroxy-1,3-benzoxazole-5-carboxamide]"
9,19 nM,"CC(C)c1ccc(-c2cc3cc(C(=O)NO)cnc3[nH]2)cc1 [Example 84, N-Hydroxy-2-[4-(1-methylethyl)phenyl]-1H-pyrrolo[2,3-b]pyridine-5-carboxamide]"
10,14 nM,"O=C(NO)c1ccc2oc(-c3ccc4c(c3)OCO4)nc2c1 [Example 8, 2-(1,3-benzodioxo1-5-yl)-N-hydroxy-1,3-benzoxazole-5-carboxamide]"
11,11 nM,"CC(C)c1ccc(-c2nc3ncc(C(=O)NO)cc3[nH]2)cc1 [Example 57, N-Hydroxy-2-[4-(1-methylethyl)phenyl]-1H-imidzo[4,5-b]pyridine-6-carboxamide]"
12,10 nM,"Cn1c(NCCc2ccccc2)nc2cc(C(=O)NO)ccc21 [Example 140, N-hydroxy-1-methyl-2-(phenethylamino)-1H-benzo[d]imidazole-5-carboxamide]"
13,7 nM,"O=C(NO)c1ccc2nc(NCc3ccc(-c4ccccc4)cc3)[nH]c2c1 [Example 125, 2-(([1,1′-biphenyl]-4-ylmethyl)amino)-N-hydroxy-1H-benzo[d]imidazole-6-carboxamide]"
14,7 nM,"O=C(NO)c1ccc2sc(Cc3ccc(F)cc3)nc2c1 [Example 79, 2-(4-fluorobenzyl)-N-hydroxy-1,3-benzothiazole-5-carboxamide]"
15,4 nM,"O=C(NO)c1ccc2cc(-c3cccc(O)c3)oc2c1 [Example 284, N-hydroxy-2-(3-hydroxypheny)-1-benzofuran-6-carboxamide]"
